Data set [1] concerns HDFn cells. Briefly: Cellular uptake efficiency by flow cytometry, HDFn. The class given is cell-based, human. To be noted: 200 nM Cy3-labeled IL10-siRNA delivered with carrier (peptide 20:1 N/P), 3.0 × 10^5 HDFn cells, 4 h, 37°C, Opti-MEM. As for the experimental part: Fig. 4 Evaluation of the cellular uptake of siRNA/peptide nanocomplexes using fluorescence analysis: a Single-molecule images of the siRNA/S-R15 nanocomplex were acquired using a super-resolution radial fluctuation. 2.0 × 10^4 HeLa cells were incubated in a 35-mm confocal dish. The nanocomplex with the final 50 nM of siRNA and S-R15 (20:1 N/P ratio) was applied to the cells for 4 h. […] Actin filaments were labeled using a SiR-actin kit (red). Fluorescence images of Cy3, FITC, and SiR-actin were merged using ImageJ software. Co-localization of the nanocomplex was visualized with arrowed white spot-like areas in a merged image (scale bar = 10 µm). b Cellular internalization of the siRNA/S-R15 nanocomplex was confirmed using a Z-stack image. Actin filaments were labeled using a SiR-actin kit (red). […] 200 nM siRNAs were delivered into 3.0 × 10^5 HDFn cells via PC: Lipofectamine™ 2000, SPACE, R11, S-R7, S-R11, and S-R15 (20:1 N/P ratio) for 4 h. […] The population of fluorescence-positive cells was expressed as a percentage. TEXT PRINTED IN THE PICTURE: (c) Lipo2000: 86.95 % | (c) SPACE: 0.25 % | (c) R11: 88.48 % | (c) S-R7: 99.75 % | (c) S-R11: 99.79 % | (c) S-R15: 99.55 %
Human cervical cancer HeLa, human dermal fibroblasts neonatal (HDFn), and immortal keratinocyte cell line HaCaT were cultured in DMEM medium supplemented with 10% FBS and 1% penicillin–streptomycin at 37°C in a humidified incubator (Esco Micro Pte. Ltd., Changi, Singapore) that contained 5% CO2. 3.0 × 10^5 cells were added to each well of a 6-well plate and incubated at 37°C in a 5% CO2 incubator overnight. After the nanocomplex formation of the final 200 nM Cy3-labeled IL10-siRNA and peptides (20:1 N/P ratio) in serum-reduced Opti-MEM™, 325 µL of the nanocomplex were added to each well and incubated for 4 h at 37°C in a 5% CO2 incubator. The cells were washed twice with 1 mL of pre-warmed phosphate-buffered saline (PBS). After 200 µL treatment of 0.25% trypsin-EDTA for 2 min, 2 mL of fresh DMEM medium was added. The suspended cells were centrifuged at 360×g for 5 min. After the supernatant was removed, the cells were washed with PBS twice under the same conditions. The final cell pellets were resuspended in ice-cold PBS and analyzed using a flow cytometer (Gallios; Beckman Coulter, CA, USA).

The nature of data set [2]: Stability of siRNA in serum (agarose gel electrophoresis). To be noted: 37°C; for time for which siRNA stability was maintained: 100 pmol siRNA, nanocomplex 20:1 N/P, heparin dissociation, agarose gel read-out.
Protocol: 100 pmol of siRNAs and peptides (20:1 N/P ratio) were self-assembled for 30 min at room temperature. Then, the nanocomplexes in 10% (v/v) FBS were incubated at 37°C, and 20 µL of each sample was collected at 24, 48, 72, and 96 h. However, the nanocomplex in 50% (v/v) FBS was incubated at 37°C, and 20 µL samples were collected at 4, 8, 12, 24, and 48 h. The siRNAs were dissociated from the nanocomplexes using incubation at 37°C for 30 min after the addition of 4 µL of 1 mg/mL heparin. After mixing the 6× loading dye to each sample, 24 µL samples were loaded into 2% (w/v) agarose gel with 1× TAE buffer in Mupid-2plus. Gel running was performed for 30 min at 100 V. The remaining siRNA was analyzed by the gel documentation system LSG 1000 (iNtRON Biotechnology, Seongnam, South Korea).
For data set [3], the system named is GAPDH mRNA. The experiment in a line: GAPDH mRNA knockdown by quantitative RT-PCR, HaCaT. To be noted: HaCaT cells, 200 nM GAPDH-siRNA delivered with carrier (peptide 20:1 N/P) 5 h; qRT-PCR, ΔΔCt vs β-actin; n ≥ 3. The class given is cell-based. As for the experimental part:
Fig. 5 Gene silencing activity and cell viability of fusion peptides: a Target GAPDH mRNA knockdown in HeLa and HaCaT by siRNA/peptide nanocomplexes was verified using quantitative RT-PCR. GAPDH-siRNAs of the final 200 nM concentration were delivered into each of the 1.0 × 10^5 HeLa cells in a 24-well plate using Lipofectamine™ 2000 as a commercialized positive control, SPACE, R11, S-R7, S-R11, and S-R15 (20:1 N/P ratio) for 5 h. 100 ng of total RNAs isolated from cells were reverse-transcribed into cDNA. 10 ng of cDNA were used for the PCR reaction with GAPDH-specific forward and reverse primers. Relative mRNA expression levels were calculated using the ΔΔCt method based on the housekeeping β-actin expression level. […] Released LDH activities were measured from 8.0 × 10^3 HDFn cells under each fusion peptide at different concentrations (0, 0.0125, 0.025, 0.05, 0.1, and 0.2 mg/mL) in a 96-well plate using an LDH assay. […] The p-value was calculated using a t-test.
GAPDH mRNA expression reduced by nanocomplex was checked using quantitative real-time PCR. […] The concentration and purity of purified RNA were measured using the Take3 plate as a nanodrop mode of a microplate reader (Epoch 2; BioTek Instruments, Inc., VT, USA). […] GAPDH mRNA expression was analyzed using the QuantStudio 3 real-time PCR system (Applied Biosystems, CA, USA). […]

Setting [4] is: 10% (v/v) FBS, sampled 24, 48, 72, 96 h.

Where “and” joins values, the source holds several entries; their conditions need not be identical. Identical values can stand only once.

“ACTGSTQHQCG [SPACE, skin permeating and cell entering peptide, …, artificial, reference compound]”: the “cellular uptake efficiency (fluorescence-positive cells / total cells)” value in data set [1] is 0.25% and 0.3%.

Regarding ACTGSTQHQCGGCGRRRRRRR [S-R7], the “cellular uptake efficiency (fluorescence-positive cells / total cells)” value in data set [1] was 99.75% and 99.8%.

ACTGSTQHQCGGCGRRRRRRRRRRR [S-R11]: the “time for which siRNA stability was maintained” value in data set [2] (setting [4]) stood at 96 h. The “cellular uptake efficiency (fluorescence-positive cells / total cells)” value in data set [1] was 99.79% and 99.8%.

ACTGSTQHQCGGCGRRRRRRRRRRRRRRR [S-R15]: the “time for which siRNA stability was maintained” value in data set [2] (setting [4]) is 96 h; in data set [2] (50% (v/v) FBS, sampled 4, 8, 12, 24, 48 h), 48 h. In data set [2] (both 10% and 50% FBS), the “siRNA stability in the nanocomplex, comparison” value is reported as “best siRNA stability”. In addition, in data set [3], the “knockdown of relative GAPDH mRNA expression compared to free siRNA” value is recorded as 50.2%. The “cellular uptake efficiency (fluorescence-positive cells / total cells)” value in data set [1] is 99.55% and 99.6%.

Values taken from PMC7881583, “Novel fusion peptide‐mediated siRNA delivery using self‐assembled nanocomplex” (Journal of Nanobiotechnology, 2021).
